The values that follow come from patent publication US20060161001A1, “Substituted heterocyclic compounds and methods of use” (Amgen Inc., priority 2004, published 2006).

Bounds are passed on as bounds.

The assay concerns LPS induced TNF release. Description: THP1 cell assay (LPS induced TNF release). The class given is cell-based. The following applies: Homo sapiens, THP-1; THP1 cells, LPS induced TNF-α secretion, 3 h at 37° C. How it is done:
Lipopolysaccharide-Activated THP1 Cell TNF Production Assay
THP1 cells are resuspended in fresh THP1 media (RPMI 1640, 10% heat-inactivated FBS, 1XPGS, 1XNEAA, plus 30 μM OME) at a concentration of 1E6/mL. One hundred microliters of cells per well are plated in a polystyrene 96-well tissue culture. One microgram per mL of bacterial LPS is prepared in THP1 media and is transferred to the wells. Test compounds are dissolved in 100% DMSO and are serially diluted 3-fold in a polypropylene 96-well microtiter plate (drug plate). HI control and LO control wells contain only DMSO. One microliter of test compound from the drug plate followed by 10 μL of LPS are transferred to the cell plate. The treated cells are induced to synthesize and secrete TNF-α at 37° C. for 3 h. Forty microliters of conditioned media are transferred to a 96-well polypropylene plate containing 110 μL of ECL buffer (50 mM Tris-HCl pH 8.0, 100 mM NaCl, 0.05% Tween 20, 0.05% NaN3 and 1% FBS) supplemented with 0.44 nM MAB610 monoclonal Ab (R&D Systems), 0.34 nM ruthenylated AF210NA polyclonal Ab (R&D Systems) and 44 μg/mL sheep anti-mouse M280 Dynabeads (Dynal). After a 2 h incubation at RT with shaking, the reaction is read on the ECL M8 Instrument (IGEN Inc.). A low voltage is applied to the ruthenylated TNF-α immune complexes, which in the presence of TPA (the active component in Origlo), results in a cyclical redox reaction generating light at […]. The amount of secreted TNF-α in the presence of compound compared with that in the presence of DMSO vehicle alone (HI control) is calculated using the formula: % control (POC)=(cpd−average LO)/(average HI−average LO)*100. Data (consisting of POC and inhibitor concentration in μM) is fitted to a 4-parameter equation (y=A+((B−A)/(I+((x/C)ˆD))), where A is the minimum y (POC) value, B is the maximum y (POC), C is the x (cpd concentration) at the point of inflection and D is the slope factor) using a Levenburg-Marquardt non-linear regression algorithm.

For orientation: IC50 means the concentration at which inhibition is half-maximal. High values mean lower potency, low ones higher potency. `CC(O)c1cc2c(nc1-c1ccccc1)N(c1ccnc(NCCc3ccccc3)n1)CCC2` (stereo not shown) [Example 73, 1-(8-(2-(Phenethylamino)pyrimidin-4-yl)-2-phenyl-5,6,7,8-tetrahydro-1,8-naphthyridin-3-yl)ethanol]: the IC50 was not above 20 µM. For `CCOC(=O)c1cc2c(nc1-c1ccccc1)N(c1ccnc(NC3CCN(C(=O)OC(C)(C)C)CC3)n1)CCC2` [Example 74, Ethyl 8-(2-(1-(tert-butoxycarbonyl)piperidin-4-ylamino)pyrimidin-4-yl)-2-phenyl-5,6,7,8-tetrahydro-1,8-naphthyridine-3-carboxylate] the value was not above 20 µM; for `CCOC(=O)c1cc2c(nc1-c1ccccc1)N(c1ccnc(N[C@H]3CC[C@H](N)CC3)n1)CCC2` [Example 75, Ethyl 8-(2-((1R,4R)-4-aminocyclohexylamino)pyrimidin-4-yl)-2-phenyl-5,6,7,8-tetrahydro-1,8-naphthyridine-3-carboxylate], not above 20 µM; for `N[C@H]1CC[C@H](Nc2nccc(N3CCCc4cc(CO)c(-c5ccccc5)nc43)n2)CC1` [Example 76, (8-(2-((1R,4R)-4-Aminocyclohexylamino)pyrimidin-4-yl)-2-phenyl-5,6,7,8-tetrahydro-1,8-naphthyridin-3-yl)methanol], not above 20 µM. For `CC(C)(O)c1cc2c(nc1-c1ccccc1)N(c1ccnc(N[C@H]3CC[C@H](N)CC3)n1)CCC2` [Example 78, 2-(8-(2-((1R,4R)-4-Aminocyclohexylamino)pyrimidin-4-yl)-2-phenyl-5,6,7,8-tetrahydro-1,8-naphthyridin-3-yl)propan-2-ol] the value was not above 20 µM; for `CCOC(=O)c1cc2c(nc1-c1ccccc1)N(c1ccnc(NC(C)Cc3cccc(CO)c3)n1)CCC2` (stereo not shown) [Example 79, Ethyl 8-(2-(1-(3-(hydroxymethyl)phenyl)propan-2-ylamino)pyrimidin-4-yl)-2-phenyl-5,6,7,8-tetrahydro-1,8-naphthyridine-3-carboxylate], not above 20 µM. Next, `CC(Cc1cccc(CN)c1)Nc1nccc(N2CCCc3cc(CO)c(-c4ccccc4)nc32)n1` (stereo not shown) [Example 80, (8-(2-(1-(3-(Aminomethyl)phenyl)propan-2-ylamino)pyrimidin-4-yl)-2-phenyl-5,6,7,8-tetrahydro-1,8-naphthyridin-3-yl)methanol]: not above 20 µM; `Nc1cc2c(nc1-c1ccccc1)N(c1ccnc(NCCc3ccccc3)n1)CCC2` [Example 81, 8-(2-(Phenethylamino)pyrimidin-4-yl)-2-phenyl-5,6,7,8-tetrahydro-1,8-naphthyridin-3-amine]: not above 20 µM. The molecule `OCc1cc(-c2ccccc2)nc2c1CCCN2c1ccnc(NCCc2ccccc2)n1` [Example 86, (8-(2-(Phenethylamino)pyrimidin-4-yl)-2-phenyl-5,6,7,8-tetrahydro-1,8-naphthyridin-4-yl)methanol] displayed an IC50 not above 20 µM.

As for `CCOC(=O)N1CCC(Nc2nccc(N3CCCc4ccc(-c5ccccc5)nc43)n2)CC1` [Example 87, Ethyl-4-(4-(7-phenyl-3,4-dihydro-1,8-naphthyridin-1(2H)-yl)pyrimidin-2-ylamino)-piperidine-1-carboxylate], the IC50 was not above 20 µM. Next, `NC1CCC(Nc2nccc(N3CCCc4ccc(-c5ccccc5)nc43)n2)CC1` [Example 88, (1R,4R)-N^1-(4-(7-Phenyl-3,4-dihydro-1,8-naphthyridin-1(2H)-ylpyrimidin-2-yl)-cyclohexane-1,4-diamine]: not above 20 µM.

`CC(C)NC1CCC(Nc2nccc(N3CCCc4ccc(-c5ccccc5)nc43)n2)CC1` [Example 89, (1R,4R)-N^1-Isopropyl-N^4-(4-(7-phenyl-3,4-dihydro-1,8-naphthyridin-1(2H)-yl)pyrimidin-2-yl)cyclohexane-1,4-diamine] came in with an IC50 not above 20 µM. As to `CC(=O)NC1CCC(Nc2nccc(N3CCCc4ccc(-c5ccccc5)nc43)n2)CC1` [Example 90, N-((1R,4R)-4-(4-(7-Phenyl-3,4-dihydro-1,8-naphthyridin-1(2H)-yl)pyrimidin-2-ylamino)cyclohexyl)acetamide], the IC50 is not above 20 µM.
